# In patent US20240009321A1, “IMMUNOGENIC NANOVESICLES FOR CANCER IMMUNOTHERAPY” (Arizona Board of Regents on Behalf of the University of …, priority 2020, published 2024):
# Assays:
# [1] = Lago optical imaging of in vivo tumor delivery of Cy5.5-labeled Camptothesome-4; design: species or system BALB/c mice; conditions: SC CT26 tumor mice, entire monitored period (24 h)
# Procedure: M ice were imaged at 0 h (prior to drug administration), and 2.5, 8, 12, and 24 h post IV injection (excitation=675 nm; emission=710 nm). At 24 h, tumors, heart, liver, spleen, lung, and kidneys were imaged using Lago optical imager. For tumor penetration investigation, tumors were frozen in an acetone/dry ice mixture prior to immunofluorescence examination. The tumor blood vessels were stained with a primary anti-CD31 (a.k.a. PECAM-1) antibody (Abcam, ab28364, 1:50), followed by an Alexa Fluor 488-conjugated secondary antibody (Abcam, ab150073, 1:400). DAPI was used to localize the cellular nuclei. Tumor tissues were cut into […] slide section by University of Arizona TACMASR and subject to the confocal laser scanning microscopy using Leica SP5-II confocal microscope (Buffalo Grove, IL) at University of Arizona Cancer Center Imaging Core.
# MC38 tumor = experiment: Therapeutic efficacy in SC MC38 tumor bearing mice; format: in vivo, C57BL/6 mice; conditions: ˜300 mm^3, single IV at eq. 20 mg CPT/kg and 6.7 mg DOX-IND/kg
# Procedure: In FIG. 8I-8J, 2×10^5 cells/mouse in 100 μL of serum free medium were SC injected to C57BL/6 (n=6). […] Mice survival rate was closely monitored every day.
# Mouse weight was monitored every 3 days, and mice survival was monitored every day.
# In FIG. 16E-161, 4×10^5 cells/mouse in 100 μL of serum free medium were SC injected to C57BU6 (n=6). Mice were IV injected once with various treatments at equivalent (eq.) 20 mg CPT/kg and 6.7 DOX-IND mg/kg when tumors grew to ˜300 mm^3. α-CD8 (BioXCell, clone 53-6.7) was IP injected at 200 μg/mouse/3 days from day 17. On day 23, mice were euthanized, and tumor tissues were isolated and equally cut into 3 pieces; one part for IHC staining for CD8, Foxp3, Calreticulin, IFN-γ, Perforin, Granzyme B, CC-3) by University of Arizona TACMASR; another two parts for Western blotting of P-S6K and RT-PCR for IL-6, respectively. Mouse weight was monitored every 3 days, and mice survival was monitored every day.
# In FIG. 16K-16N, 2×10^5 cells/mouse were SC injected to C57BL/6 (n=5). When tumors reached ˜400 mm^3, mice received a single IV injection with various treatments at eq. […] Mouse weight was monitored every 3-4 days, and mice survival was monitored every day.
# [2] = Maximum tolerated dose (MTD) and systemic toxicity in healthy mice; format: in vivo, BALB/c mice; conditions: for Animal Death / Weight Loss: n=3, 14 days
# Procedure: Changes in body weight and survival of mice were followed every 1-2 days for two weeks. […] On day 14 post drug injection, blood was withdrawn by cardiac puncture and major organs (e.g., heart, liver, and kidneys) were collected. Blood was collected in lithium heparin tubes (BD Microtainer™) followed by centrifuging at 2,000×g for 10 minutes in a refrigerated centrifuge. The supernatant (serum) was sent to University of Arizona University Animal Care Pathology Services Core for a series of serum chemistry analysis. The whole blood in dipotassium EDTA tube (BD Microtainer™) were used for leukocytes, erythrocytes, and thrombocytes analysis. Mice organs from MTD dose and vehicle control groups were placed in a 4% paraformaldehyde solution for 24 h and then sent to Tissue Acquisition and Cellular/Molecular Analysis Shared Resource (TACMASR) at University of Arizona Cancer Center for histopathological analysis.
# [3] = Blood kinetics of CPT in SC CT26 tumor bearing mice
# Procedure: Following a single IV injection via tail vein of free CPT (5 mg CPT/kg, MTD) and different Camptothesomes (20 mg CPT/kg) to SC CT26 tumor bearing mice (n=3, ˜300 mm^3), blood was withdrawn at 0.083, 0.333, 1, 2.5, 8, 12 and 24 h and plasma (via plasma tube, BD Microtainer™) was collected and digested in methanol (90 μL methanol/10 μL serum) for HPLC analysis to measure the released CPT and SM-derived CPT conjugates. 24 h after drug IV administration, tumor tissues and major organs (heart, liver, spleen, lung, and kidneys) were collected, weighed, and then homogenized in acidified methanol (0.075 M HCl, 900 μL/100 mg tissues) followed by drug content determination using an established HPLC method. […] Mice were sacrificed at 2.5 h and 72 h post drug administration, the drug content in the collected tumor tissues and organs were processed, and analyzed as described above.
# CT26 tumor = experiment: Therapeutic efficacy in SC CT26 tumor bearing mice; format: in vivo, BALB/c mice; conditions: single IV on day 9 (˜50 mm^3); free CPT 5 mg/kg, Camptothesomes and Onivyde 20 mg CPT or irinotecan/kg
# Procedure: 1×10^5 CT26 cells in 100 μL of serum free medium were SC injected in the right flank of the BALB/c mice (n=5 or 6). […] To determine the effect on survival rate in each group (n=6). Kaplan-Meier plots were used to express animal survival rate. For the efficacy study in FIG. 8D-8H, mice were euthanized on day 21; tumors were collected and soaked in 4% paraformaldehyde overnight prior to the immune phenotypic [CD8, Granzyme B, Perforin, Cleaved caspase-3 (CC-3), and IFN-γ] analysis using IHC staining by University of Arizona TACMASR.
# [4] = Pharmacokinetics in orthotopic CT26-Luc tumor-bearing mice; conditions: for AUC(0-inf) / AUC(0-t) / MRT / half-life: BALB/c, mouse, plasma, iv; for AUMC / CL / V / Vss: single IV, nanovesicles 6.7/20 mg DOX-IND/CPT/kg
# Procedure: The various pharmacokinetics parameters were assessed by one-compartmental model using PKSolver software.
# [5] = BALB/c, mouse, plasma, iv, 5 mg/kg
# [6] = single IV, free CPT 5 mg/kg, Camptothesomes 20 mg CPT/kg, SC CT26 tumor mice, n=3
# [7] = Blood kinetics of CPT, free CPT 5 mg/kg
# [8] = Blood kinetics of IND, IND 1.7 mg/kg
molecule,measurement,setting,value
"1,2-dioleoyl-sn-glycero-3-phosphoethanolamine-N-(cyanine 5.5) [Free DSPE-Cy5.5]",fluorescence signal in tumors,[1],no observable signal in tumors
"COc1cccc2c1C(=O)c1c(O)c3c(c(O)c1C2=O)C[C@@](O)(/C(CO)=N\NC(=O)OCCSSCCOC(=O)C(N)Cc1cn(C)c2ccccc12)C[C@@H]3O[C@H]1C[C@H](N)[C@H](O)[C@H](C)O1 (stereo in doubt) [DOX-IND, 2-((2-((1-methyl-D-tryptophyl)oxy)ethyl)disulfanyl)ethyl (Z)-2-(1-((2S,4S)-4-(((2R,4S, 5S, 6S)-4-amino-5-hydroxy-6-methyltetrahydro-2H-pyran-2-yl)oxy)-2,5,12-trihydroxy-7-methoxy-6,11-dioxo-1,2,3,4,6,11-hexahydrotetracen-2-yl)-2-hydroxyethylidene)hydrazine-1-carboxylate]",tumor growth in large MC38 tumors,MC38 tumor,did not show significant tumor growth inhibition
"CC[C@@]1(O)C(=O)OCc2c1cc1n(c2=O)Cc2cc3ccccc3nc2-1 [Free CPT, (S)-(+)-camptothecin]",Animal Death,"[2]; Dose 5 mg/kg, single IV",0/3
same,Weight Loss,"[2]; Dose 5 mg/kg, single IV",1.82%
same,Animal Death,"[2]; Dose 7.5 mg/kg, single IV",1/3
same,Animal Death,"[2]; Dose 10 mg/kg, single IV",1/3
same,Animal Death,"[2]; Dose 12.5 mg/kg, single IV",0/3
same,Weight Loss,"[2]; Dose 12.5 mg/kg, single IV",25.35%
same,"systemic toxicity (serum chemistry, blood counts, H&E of organs)","[2]; at MTD, day 14 post IV injection",severe systemic toxicities
same,MTD at 14 days,"[2]; mouse, in vivo, single IV, healthy BALB/c mice, 14 days, no death, not more than 15% weight loss",5 mg/kg
same,half-life,"[3]; BALB/c, mouse, in vivo, iv, 5 mg/kg",4.2 ± 0.6 min
same,AUC(0-inf),[3]; [5],11200 ± 1520 ng·h/mL
same,AUC(0-t),[3]; [5],11000 ± 1550 ng·h/mL
same,MRT,[3]; [5],351 ± 24.6 min
same,elimination from blood / circulation half-life,"[3]; SC CT26 tumor mice, single IV",rapidly eliminated from blood
same,AUMC,[3]; [6],65.42 ± 6.99 μg/mL · h^2
same,CL,[3]; [6],36.06 ± 5.00 µg/µg/mL/h
same,V,[3]; [6],26.44 ± 0.27 µg/µg/mL
same,Vss,[3]; [6],211.68 ± 38.45 µg/µg/mL
same,tumor growth,CT26 tumor,significant tumor reduction
same,AUC(0-inf),[4]; 5 mg/kg,9480 ± 880 ng·h/mL
same,AUC(0-t),[4]; 5 mg/kg,9470 ± 870 ng·h/mL
same,MRT,[4]; 5 mg/kg,51.6 ± 2.4 min
same,half-life,[4]; 5 mg/kg,3.6 ± 0.6 min
same,AUMC,[4]; [7],8.12 ± 0.38 μg/mL*h2
same,CL,[4]; [7],10.62 ± 1.00 μg/(μg/mL)/h
same,V,[4]; [7],0.77 ± 0.23 μg/(μg/mL)
same,Vss,[4]; [7],9.16 ± 1.30 μg/(μg/mL)
"Cn1cc(C[C@@H](N)C(=O)O)c2ccccc21 [Free IND, 1-methyl-D-tryptophan]",AUC(0-inf),[4]; 1.7 mg/kg,5670 ± 540 ng·h/mL
same,AUC(0-t),[4]; 1.7 mg/kg,5660 ± 530 ng·h/mL
same,MRT,[4]; 1.7 mg/kg,24.6 ± 5.4 min
same,half-life,[4]; 1.7 mg/kg,4.8 ± 1.2 min
same,AUMC,[4]; [8],2.38 ± 0.71 μg/mL*h2
same,CL,[4]; [8],12.08 ± 1.17 μg/(μg/mL)/h
same,V,[4]; [8],4.94 ± 0.63 μg/(μg/mL)
same,Vss,[4]; [8],4.95 ± 0.63 μg/(μg/mL)
